{
  "source": "patent US20240315963A1",
  "about": "“COMPOSITIONS AND METHODS FOR EXTENDED DELIVERY OF API TO TREAT DISEASES OF THE EYE” (priority 2023, published 2024)",
  "test": "API elution study from the gel, buffer replaced daily, HPLC",
  "type": "physicochemical",
  "conditions": "50 mg API in 4-Arm PEG-10K-SG/4-arm-PEG-10K-SAS/4-arm PEG-20K-NH2 gel; 37° C., 2 ml 7.4 buffer replaced daily",
  "method": "A mold piece manufactured per example 5 is placed in a 2 ml buffered saline at 37° C. water bath. The entire 2 ml saline is removed daily from the sample and a new 2 ml saline is added. The process is repeated daily till the device is completely dissolved. The saline sample with drug is analyzed by HPLC, GC to establish the elution rate.\nExample 22. Powder mixtures of 4-Arm PEG-10K-SG (12.5 mg) and 4-arm-PEG-10K-SAS (12.5±0.5 mg), 4-arm PEG-20K-NH 2 (25±0.5 mg) were placed in a 10 ml syringe. To this powder was added 50 mg corticosteroid TMC.",
  "data": [
    {"smiles": "C[C@]12C=CC(=O)C=C1CC[C@H]1[C@@H]3C[C@@H](O)[C@](O)(C(=O)CO)[C@@]3(C)C[C@H](O)[C@@]12F", "note": "[TMC]", "values": [
      {"measurement": "amount eluted each day", "result": "about 54 micro grams"}
    ]}
  ]
}
